Results published in ChEMBL document CHEMBL3301451, “MMV Malaria Box gametocyte functional viability assay screening”.

Assays:
Type in all cases: functional
Parameters in all cases: concentration or dose not given beside the values
Plasmodium berghei = assay: MMV: P. berghei-infected blood was withdrawn from mice by cardiac pucture before being immediately added to ookinete culture medium containing test compounds. 26 hr later, GFP-positive ookinetes were identified and counted by automated microscopy. All compounds were tested in 4 independent experiments and data presented here is the mean.
Plasmodium falciparum [1] = assay: MMV: P. falciparum NF54 functionally mature Stage V gametocytes were incubated for 24 hr in the presence of the test compounds. Gamete formation was then triggered by addition of 2uM xantheurenic acid and temperature decrease to ~20C. Female gamete formation was recorded 24 hr later by automated microscopy detection of surface labelling of female gametes with a Cy3-conjugated antibody reactive to Pfs25. All compounds were tested in 4 independent experiments and data presented here is the mean.; conditions: NF54, 24 h
Plasmodium falciparum [2] = assay: MMV: P. falciparum NF54 functionally mature Stage V gametocytes were incubated for 24 hr in the presence of the test compounds. Gamete formation was then triggered by addition of 2uM xantheurenic acid and temperature decrease to ~20C. Male gamete exflagellation was recorded and analysed by automated microscopy after 20 min. All compounds were tested in 4 independent experiments and data presented here is the mean.

Row | Compound | inhibition (Plasmodium berghei) [%] | inhibition (Plasmodium falciparum [1]) [%] | inhibition (Plasmodium falciparum [2]) [%]
1 | COc1ccc(C2=C(c3ccc(OC)cc3)C3(c4ccccc4)C(=O)C2(c2ccccc2)C2C(=O)N(c4ccc(C)cc4)C(=O)C23)cc1 (configuration not stated) | -21.97 | 7.88 | -9
2 | Cc1cccc(-n2ncc3c(O)nc(-n4nc(C)cc4NC(=O)c4cc5ccccc5o4)nc32)c1 | -5.778 | -18.6 | 34.4
3 | CCCCCCc1cc2cc(-c3nc4ccccc4[nH]3)c(=Nc3ccccc3C)oc2cc1O | 23.15 | 5.88 | 9.8
4 | CCOc1cc2c(cc1OCC)C(c1cc(Cl)c(O)c(OCC)c1)NCC2 (configuration not stated) | -11.39 | 14.7 | 22.4
5 | CC(C)OCc1cc(CN2CCN(c3cccc(Cl)c3)CC2)c(O)c2ncccc12 | 5.6 | -27.4 | 10.1
6 | CCOc1ccc(-n2cc(-c3ccccc3)c3c(SCc4cc(C)ccc4C)ncnc32)cc1 | -4.1 | -11.5 | 13
7 | CCCN(CCC)CC(O)COc1ccccc1C(=O)Nc1ccccc1 (configuration not stated) | -27.28 | -10.5 | 0.885
8 | Cc1c(C)n(Cc2ccc(F)cc2)c2ccc(C(=O)NCc3ccco3)cc12 | 17.74 | -40.2 | 49.7
9 | COc1ccc(CCN2C(=O)c3[nH]nc(-c4cc(Cl)c(C)cc4O)c3C2c2ccccc2F)cc1 (configuration not stated) | -13.65 | -34.2 | -17.3
10 | COc1ccc(C2C(C(=O)Nc3cccc(OC)c3)c3ccccc3C(=O)N2C2CCCCC2)cc1 (configuration not stated) | -12.06 | -25.1 | 46.2
11 | COc1ccc(N2CCN(C(CNC(=O)C3CCCCC3)c3ccc4c(c3)OCO4)CC2)cc1 (configuration not stated) | -5.593 | -22.9 | 29.7
12 | Cn1c(=O)c2cc(C(=O)NCCCN3CCCCCC3)sc2c2ccccc21 | 5.415 | -16.3 | 20.7
13 | Cc1cc(N2CCCC2)nc(Nc2ccc(NC(=O)CCc3ccccc3)cc2)n1 | -8.954 | -8.07 | -19.1
14 | O=C(Nc1ccc(F)c(Cl)c1)Nc1ccc(Cl)c(Cl)c1 | -10.47 | -12.2 | 15.7
15 | Cl.c1ccc2c(NCCCCCCNc3c4c(nc5ccccc35)CCCC4)c3c(nc2c1)CCCC3 | -0.2313 | -9.36 | 18.8
16 | O=C(Nc1ccc(CN2CCOCC2)cc1)c1ccc(-c2cc(Cl)ccc2Cl)o1 | -15.91 | -21.4 | 2.57
17 | CN(C)c1ccc(N2C(N)=NC(N)=NC2(C)C)cc1 | -13.4 | -61.8 | 71.6
18 | CCC(C)NCC(O)(c1ccc(Cl)cc1)c1ccc(Cl)cc1 (configuration not stated) | 2.874 | -7.82 | 25.7
19 | CCn1c(SCC(=O)Nc2cc(C(F)(F)F)ccc2Cl)nc2ccccc2c1=O | -2.806 | -19.5 | 22.5
20 | Br.CCn1c2c(c(=N)c3c1CCC3)CCCC2 | -17.86 | -26.2 | -42.4
21 | CCOc1ccccc1CNC(=O)C1c2ccccc2C(=O)N(CC(C)C)C1c1cccs1 (configuration not stated) | 3.43 | -3.09 | 15.7
22 | COc1ccccc1CNC(=O)CCn1c(=O)[nH]c2ccsc2c1=O | -0.4809 | -26.3 | 22.3

Row | Compound | inhibition (Plasmodium berghei) [%] | inhibition (Plasmodium falciparum [1]) [%] | inhibition (Plasmodium falciparum [2]) [%]
23 | O=C(CCl)NCCOc1ccc(Cl)cc1Cl | -18.34 | -30.6 | 13.7
24 | Cc1ccc(Nc2nc(-c3ccccn3)cs2)cc1 | 12.18 | 0.787 | 16.3
25 | CCCCCC(=O)N1c2ccccc2N=C2CC(c3ccc(OC)c(OC)c3)CC(O)=C2C1c1ccc(C(F)(F)F)cc1 (configuration not stated) | -9.202 | -11.5 | 59.4
26 | O=C(Nc1ccc(C23CC4CC(CC(c5ccccc5)(C4)C2)C3)cc1)c1cccs1 | -2.527 | -23.5 | 18.1
27 | COc1ccc(C2Sc3ccccc3N=C3C2=C(O)c2ccccc23)cc1 (configuration not stated) | 68.07 | 0.279 | 32.2
28 | CCC(=O)Nc1nnc(Cc2ccc(OC)c(OC)c2)s1 | -4.332 | -4.58 | 19.9
29 | CCOc1ccc(C2N(C)c3ccccc3N2C)cc1 | -11.42 | 9.89 | -6.18
30 | O=c1nc(C=Cc2ccc(Br)cc2)oc2ccccc12 | 19.61 | 4.96 | 35.1
31 | CCOc1cc2c(cc1OCC)C(c1cc(C)c(O)c(C)c1)NCC2.Cl (configuration not stated) | -16.67 | 20.2 | -7.71
32 | CC1CC(C)CN(C(=O)c2ccc(Cl)cc2Cl)C1 (configuration not stated) | -6.319 | -18.2 | 30.8
33 | O=C(Nc1ccc(-c2nc3cc(NC(=O)c4ccc(Cl)cc4)ccc3[nH]2)cc1)c1ccc(Cl)cc1 | -7.523 | -21.8 | -17.6
34 | COc1ccc2c(=O)cc(C(Cl)(Cl)Cl)oc2c1 | -22.17 | -23.2 | 31.7
35 | COc1ccc(C(=O)Nc2nonc2-c2ccc(OC)c(OC)c2)cc1Cl | 1.319 | -18.2 | 36.3
36 | CC(C)CCNCC(O)Cn1c2ccccc2c2ccccc21.Cl (configuration not stated) | 4.97 | -12.9 | -10.1
37 | O=c1cc(NC2CCN(CCCc3ccccc3)CC2)c2cc(Cl)ccc2o1 | 7.737 | -4.85 | -9.89
38 | O=C(Nc1ccc(-c2nc3cc4ccccc4cc3[nH]2)cc1)c1cccc(Br)c1 | -21.87 | -0.0992 | 30.7
39 | CN1CCN(c2nc(Nc3ccc(O)cc3)nc3ccccc23)CC1.Cl | -15.95 | -25.1 | 2
40 | N=c1c2ccccc2nnn1-c1cccc(C(F)(F)F)c1 | -9.695 | 7.15 | 51.2
41 | Cc1cc(Nc2ccc(OCc3ccccc3)cc2)nc2cc(O)ccc12 | -6.891 | 6.66 | 32.7
42 | CCN(Cc1ccccc1)C1CCN(Cc2cc(Br)ccc2O)CC1.O=C(O)C(=O)O | 11.31 | -4.68 | 7.05
43 | Cc1cc(C)c2c(c1)OCN(Cc1ccccc1Cl)C2 | -11.06 | -10 | 25.8
44 | COc1cccc(C2(C)Nc3ccccc3-c3nc4ccccc4n32)c1 (configuration not stated) | 6.874 | 7.61 | -12.6

Row | Compound | inhibition (Plasmodium berghei) [%] | inhibition (Plasmodium falciparum [1]) [%] | inhibition (Plasmodium falciparum [2]) [%]
45 | Fc1ccc2[nH]c3c(NCCCN4CCOCC4)ncnc3c2c1 | -27.65 | -13.7 | 14.8
46 | c1ccc(CNc2nc(Nc3ccccc3)nc3ccccc23)cc1 | -4.491 | -29.2 | -50.6
47 | CCOc1cccc(C(=O)Nc2ccc(-c3nc4ccccc4[nH]3)cc2)c1 | -10.12 | -29.6 | 32.1
48 | CC1CCN(Cc2ccc(NC(=O)c3cc4ccc5cccnc5c4[nH]3)cc2)CC1 | -17.24 | -3.24 | 10.2
49 | COc1ccc(C=C2SC(Nc3ccc(F)cc3)=NC2=O)c(OC)c1 | 49.11 | -24.5 | 42.9
50 | COc1cc(OC)c(N(C)C(=O)c2cc3c(s2)-c2ccccc2S(=O)(=O)C3)cc1Cl | -16.25 | -14.9 | 7.68
51 | Brc1ccc(Nc2nc3ccccc3nc2Nc2ccc(Br)cc2)cc1 | -6.195 | -0.532 | 18.1
52 | O=C(NCc1ccco1)C1CCN(S(=O)(=O)c2ccc(Br)cc2)CC1 | 31.69 | 5.71 | 29.2
53 | O=C(NCC(c1ccsc1)N1CCCCCC1)c1ccc(C(F)(F)F)cc1 (configuration not stated) | -31.95 | -37.4 | -14.6
54 | COc1ccc(C(=O)NC(c2ccccc2Cl)c2cc(Cl)c3cccnc3c2O)cc1 (configuration not stated) | -9.997 | -6.93 | 2.11
55 | CN(C)c1ccc(N=Cc2ccc(N3CCOCC3)cc2)cc1 | 4.978 | -21.3 | 34.2
56 | Cc1ccc(C(=O)c2oc3ccc4c(C)cc(=O)oc4c3c2C)cc1 | -19.35 | -29.5 | -7.03
57 | COc1ccc(Nc2nc(NCc3ccccc3)c3ccccc3n2)cc1 | -12.84 | -14.7 | -30.2
58 | COc1ccc(-c2nonc2NC(=O)c2cccc(C)c2)cc1OC | -9.338 | 3.1 | 31.3
59 | COc1ccc(CCn2c(=N)c(C(=O)NCc3cccnc3)cc3c(=O)n4cccc(C)c4nc32)cc1 | 23.24 | -20.7 | -7.17
60 | CC(Oc1ccc(NC(=O)c2cccs2)cc1)C(=O)c1ccc(Cl)cc1 (configuration not stated) | 73.22 | -14 | 25.6
61 | COCCNCC(O)Cn1c2ccc(Cl)cc2c2cc(Cl)ccc21 (configuration not stated) | -6.812 | -7.62 | -2.59
62 | O=C(NC1CCN(Cc2ccccc2)CC1)c1cc2nc(-c3ccc(Cl)s3)cc(C(F)(F)F)n2n1 | 28.86 | -40.5 | -4.49
63 | Br.Cc1ccc(C)c(-c2csc(Nc3ccc(C)c(C)c3)n2)c1 | -11.38 | -46.3 | 20.6
64 | Nc1ccn([C@@H]2O[C@H](CO)[C@@H](O)[C@H]2O)c(=O)n1 [CYTIDINE] | -17.3 | -25.7 | -18.8
